In paper PMC8129498, “Synthesis, Antitumor and Antiviral In Vitro Activities of New Benzotriazole-Dicarboxamide Derivatives” (Frontiers in Chemistry, 2021):

Assays:
SK-MEL28 = experiment: Antiproliferative assay (MTT), SK-MEL28; type: cell-based; settings: Homo sapiens, SK-MEL-28, 96 h, read-out: CC50 SK-MEL28
Method: (§1) Cell lines were purchased from American Type Culture Collection (ATCC). The absence of mycoplasma contamination was checked periodically by the Hoechst staining method. Exponentially growing leukemia and lymphoma cells were seeded at 1 × 10^5 cells/ml in 96 well plates in RPMI-1640 medium, supplemented with 10% fetal bovine serum, 100 units/ml penicillin G, and 100 μg/ml streptomycin, and incubated at 37°C in a humidified, 5% CO2 atmosphere in the absence or presence of serial dilutions of test compounds. Cell viability was determined after 96 h at 37°C by the 3-(4,5-dimethylthiazol-2-yl)-2,5-diphenyl-tetrazolium bromide (MTT) method. Activity against solid-tumor derived cells was evaluated in exponentially growing cultures seeded at 5 × 10^4 cells/ml and allowed to adhere for 16 h to culture plates before the addition of the drugs. Cell viability was determined by the MTT method 4 days later. Vincristine and doxorubicin were used as reference drugs.
(§2) The extent of cell growth/viability and viral multiplication, at each drug concentration tested, were expressed as percentage of untreated controls. Concentrations resulting in 50% inhibition (CC50 or EC50) were determined by linear regression analysis.

CCRF-SB = experiment: Antiproliferative assay (MTT), CCRF-SB; type: cell-based; settings: Homo sapiens, 96 h, read-out: CC50 CCRF-SB
Method: as §1, §2

SK-MES 1 cells = experiment: Apoptosis assay (Annexin V/PI, flow cytometry); type: cell-based, human; settings: 96 h
Method: 3b compound was selected as lead and employed in our assay. Human lung cancer cells (SK-MES 1) were seeded at the density of 8 × 10^5 cells/ml in 6-well plates (Corning, United States) with a complete medium (described in cell culture section). After overnight incubations, the cells were treated with or without different concentrations of 3b for 96 h. Cells were then labeled with Annexin V and PI as previously described ([Ibba et al., 2021]). Stained cells were then analyzed by flow cytometry, measuring the fluorescence emission at 530 and 620 nm using 488 nm excitation laser (MoFloAstrios EQ, Beckman Coulter). Cell apoptosis was analyzed using Software Summit Version 6.3.1.1, Beckman Coulter.

DU145 = experiment: Antiproliferative assay (MTT), DU145; type: cell-based; settings: Homo sapiens, DU-145, 96 h, read-out: CC50 DU145
Method: as §1, §2

[1] = Antiproliferative assay (MTT), CRL 7065 control fibroblasts; type: cell-based, human; settings: MTT; human foreskin fibroblasts, non-tumor control; read-out: CC50 CRL 7065
Method: as §1, §2

breast cancer cell lines = experiment: NCI60 Human Tumor Cell Lines Screen, breast cancer lines; type: cell-based; settings: most of the breast cancer cell lines, read-out: Percentage of Growth Inhibition (PGI)
Method: (§3) The in vitro anti-cancer screening was performed through the NCI60 Human Tumor Cell Lines Screen, provided by the Developmental Therapeutics Program of the National Cancer Institute (NCI, Bethesda, United States). A single dose of 10 µM of each compound is tested in the whole NCI60 cell panel. More details about the NCI60 screen methods are reported on the NCI website (https://dtp.cancer.gov ).

[2] = test system: prostate cancer cell lines; experiment: NCI60 Human Tumor Cell Lines Screen, prostate cancer lines; type: cell-based; settings: the two prostate cancer cell lines
Method: as §3

[3] = test system: panel of 60 human tumor cell lines; experiment: NCI60 Human Tumor Cell Lines Screen, whole panel; type: cell-based; settings: 10 μM, of the 60 cell lines
Method: as §3

CCRF-CEM = experiment: Antiproliferative assay (MTT), CCRF-CEM; type: cell-based, human; settings: Homo sapiens, CCRF-CEM, 96 h, read-out: CC50 CCRF-CEM
Method: as §1, §2

SK-MES1 = experiment: Antiproliferative assay (MTT), SK-MES1; type: cell-based; settings: Homo sapiens, SK-MES-1, 96 h, read-out: CC50 SK-MES1
Method: as §1, §2

WIL-2NS = experiment: Antiproliferative assay (MTT), WIL-2NS; type: cell-based; settings: Homo sapiens, WIL2-NS, 96 h, read-out: CC50 WIL-2NS
Method: as §1, §2

OVCAR-4 = experiment: NCI60 Human Tumor Cell Lines Screen, OVCAR-4; type: cell-based; settings: OVCAR-4 ovarian cancer cell line, read-out: Percentage of Growth Inhibition (PGI)
Method: as §3

HeLa = experiment: Antiproliferative assay (MTT), HeLa; type: cell-based; settings: Homo sapiens, 96 h, read-out: CC50 HeLa
Method: as §1, §2

## O=C(CCCC(=O)Nc1ccc(-n2nnc3cc(Cl)c(Cl)cc32)cc1)Nc1ccc(-n2nnc3cc(Cl)c(Cl)cc32)cc1 [Compound 3b, N ^1,N ^5-Bis(4-(5,6-Dichloro-1H-Benzo[d][1,2,3]Triazol-1-yl)phenyl)glutaramide]
SK-MEL28
  CC50: 6.2 ± 1.3 µM
CCRF-SB
  CC50: 0.35 ± 0.07 µM
SK-MES 1 cells; 7μM
  % Early apoptotic cells: 21.4 ± 12.32%
  % Late apoptotic cells: 10.5 ± 0.67%
  % Live cells: 63.8 ± 1.1%
  % Necrotic cells: 4.3 ± 0.74%
SK-MES 1 cells; 20μM
  % Early apoptotic cells: 28.5 ± 4.63%
  % Late apoptotic cells: 11.1 ± 2.08%
  % Live cells: 54.8 ±4.9%
  % Necrotic cells: 5.6 ±1.74%
SK-MES 1 cells; 7 µm
  apoptotic cells: 32%
SK-MES 1 cells; 20 µm
  apoptotic cells: 40%
DU145
  CC50: 5.1 µM
[1]
  CC50 at 96 h: 0.75 ± 0.05 µM
Breast cancer cell lines
  inhibition at 10 µM: 48 to 81%
[2]; 10 μM
  Percentage of Growth Inhibition (PGI): 66%
[2]; Homo sapiens, read-out: Percentage of Growth Inhibition (PGI)
  inhibition at 10 µM: 80%
[3]
  number of cell lines with PGI higher than 50%: 29
CCRF-CEM
  CC50: 0.5 ± 0.1 µM
SK-MES1
  CC50: 6.8 ± 3.5 µM
WIL-2NS
  CC50: > 100 µM
OVCAR-4
  inhibition at 10 µM: 106%
HeLa
  CC50: 7.1 ± 2.7 µM
